From ChEMBL document CHEMBL1146784, “Human ACAT-1 and -2 inhibitory activities of saucerneol B, manassantin A and B isolated from Saururus chinensis” (Bioorg Med Chem Lett, 2004) come the findings set out here.

For experiment [1], the target named is T1, Sterol O-acyltransferase 2 (Homo sapiens) (UniProt O75908).
T1 sequence (whole entry): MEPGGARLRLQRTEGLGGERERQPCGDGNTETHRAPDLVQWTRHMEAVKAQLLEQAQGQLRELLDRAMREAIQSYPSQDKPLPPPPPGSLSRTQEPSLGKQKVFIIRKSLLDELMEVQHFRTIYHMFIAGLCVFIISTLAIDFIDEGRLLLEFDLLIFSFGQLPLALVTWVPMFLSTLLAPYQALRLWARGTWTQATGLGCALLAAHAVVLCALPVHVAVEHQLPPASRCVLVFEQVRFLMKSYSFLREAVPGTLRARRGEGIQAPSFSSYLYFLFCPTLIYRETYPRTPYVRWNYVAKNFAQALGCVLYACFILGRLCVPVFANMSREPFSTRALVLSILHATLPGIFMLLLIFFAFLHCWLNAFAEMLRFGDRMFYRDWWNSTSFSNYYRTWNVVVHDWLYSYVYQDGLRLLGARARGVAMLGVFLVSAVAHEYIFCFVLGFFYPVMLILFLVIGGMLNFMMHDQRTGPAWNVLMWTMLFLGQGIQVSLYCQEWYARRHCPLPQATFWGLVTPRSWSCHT
Briefly: (§1) Concentration required to inhibit Acyl coenzyme A:cholesterol acyltransferase 2. The following applies: concentration not given here.

The next experiment is filed under the species Mus musculus. The experiment in a line: Effect against body weight of mice when treated with 0.1% wt/wt diet of compound for 10 days; On day 0 =21.8 g. The class given is functional.
Experiment [2] concerns the target T2, Sterol O-acyltransferase 2 (Homo sapiens, UniProt O75908).
T2 sequence (O75908 whole entry): T1 sequence (whole entry)
The experiment is described as §1.

SMILES strings stand for the structures.

Regarding `COc1ccc(C(O)C(C)Oc2ccc([C@H]3O[C@H](c4ccc(OC(C)C(O)c5ccc6c(c5)OCO6)c(OC)c4)[C@H](C)[C@H]3C)cc2OC)cc1OC` (stereo partly drawn), the inhibition (commonly the drop in the measured response relative to a control, in per cent) in experiment [1] came out at 32%. The compound `CC(C)(Sc1cc(C(C)(C)C)c(O)c(C(C)(C)C)c1)Sc1cc(C(C)(C)C)c(O)c(C(C)(C)C)c1` [PROBUCOL] yielded a Body weight in the experiment listed under Mus musculus of 23.7 g. On to `COc1ccc(C(O)C(C)Oc2ccc([C@H]3O[C@H](c4ccc(OC(C)C(O)c5ccc(OC)c(OC)c5)c(OC)c4)[C@H](C)[C@H]3C)cc2OC)cc1OC` (stereo partly drawn), for which the IC50 (commonly the concentration needed to halve the response being measured) in experiment [2] came to 39 µM.
